This note sets out measurements from PubChem BioAssay (NCI).

Among the test systems are OVCAR-4 ovarian; SNB-19 CNS; DU-145 prostate; SF-295 CNS; HL-60(TB) leukemia; NCI-H226 lung; HT29 colon; SN12C renal; ACHN renal; MDA-MB-231 breast; A498 renal; TK-10 renal; SNB-75 CNS; HCT-15 colon; HOP-62 NSCLC; SF-539 CNS.
What all share (test): growth of human tumour cells (NCI), 48 h

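Step 1: Grow cells in 96-well plates. Step 2: Expose to compound for 48 hours at 5 concentrations. Step 3: Interpolate endpoints linearly; if unreached, use highest concentration. TGI: total growth inhibition.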 Bounds are passed on as bounds.

Take `COc1cc(-c2cc(-c3ccccc3)nc(-c3c(OC)ccc4c(C)cc(=O)oc34)c2)cc(OC)c1OC`: the TGI in the test with OVCAR-4 ovarian, in the test on SNB-19 CNS, in the test with DU-145 prostate, in the test on SF-295 CNS, with HL-60(TB) leukemia and in the test on NCI-H226 lung was greater than 100 µM each time. The TGI in the test on HT29 colon, in the test on SN12C renal, in the test on ACHN renal, in the test with MDA-MB-231 breast, in the test on A498 renal and with TK-10 renal was greater than 100 µM each time. In addition, the TGI with SNB-75 CNS, with HCT-15 colon, with HOP-62 NSCLC and in the test with SF-539 CNS was greater than 100 µM throughout.
`COc1ccc(-n2cnc3c2NC(C)(C)N=C3C(N)=O)c(OC)c1`: the TGI in the test on OVCAR-4 ovarian, with SNB-19 CNS, in the test with DU-145 prostate, in the test with SF-295 CNS, in the test with HL-60(TB) leukemia and in the test on NCI-H226 lung was greater than 100 µM in each case. The TGI in the test on HT29 colon, in the test on SN12C renal, in the test with ACHN renal, in the test with MDA-MB-231 breast, in the test with A498 renal and with TK-10 renal was greater than 100 µM in each case. The TGI in the test on SNB-75 CNS, in the test on HCT-15 colon, in the test on HOP-62 NSCLC and with SF-539 CNS was greater than 100 µM each time.
In the case of `CCN(CC)/C(Sc1ccccc1)=C(\C(Cl)=C(Cl)Cl)[N+](=O)[O-]`, the TGI in the test on OVCAR-4 ovarian was greater than 100 µM; in the test on SNB-19 CNS, 49.9 µM; in the test with DU-145 prostate it was 34.9 µM; with SF-295 CNS, 37.1 µM; in the test on HL-60(TB) leukemia it was 5.94 µM; in the test with NCI-H226 lung, 42.8 µM. Further, the TGI was found to be 45.8 µM in the test with HT29 colon; 37.8 µM in the test on SN12C renal; 31.7 µM in the test on ACHN renal; 50.5 µM in the test on MDA-MB-231 breast; 36.3 µM in the test on A498 renal; 31.3 µM with TK-10 renal. Also, the TGI in the test with SNB-75 CNS came to 57.3 µM; in the test with HCT-15 colon, 34.8 µM; with HOP-62 NSCLC it was 42.4 µM; in the test with SF-539 CNS, 33 µM.
For the compound `COc1ccc(C(=O)c2sc(Nc3ccc(Cl)cc3)nc2N)cc1`, the TGI in the test with OVCAR-4 ovarian was greater than 61.4 µM; with SNB-19 CNS, greater than 69.9 µM; with DU-145 prostate, greater than 100 µM; with SF-295 CNS it was 46.7 µM; in the test with HL-60(TB) leukemia, greater than 100 µM; in the test on NCI-H226 lung, greater than 100 µM. Moreover, the TGI in the test with HT29 colon is greater than 64.9 µM; in the test with SN12C renal, greater than 62.8 µM; with ACHN renal, greater than 87.7 µM; in the test with MDA-MB-231 breast, greater than 92.4 µM; in the test on A498 renal, greater than 75 µM; with TK-10 renal it was 33.4 µM. Also, the TGI with SNB-75 CNS is 18.4 µM; in the test on HCT-15 colon, greater than 100 µM; in the test with HOP-62 NSCLC, 38.6 µM; in the test with SF-539 CNS, 66.2 µM.
Consider `CN(C)C(=S)/N=c1\ssc(=S)n1Cc1ccccc1`, for which the TGI in the test on OVCAR-4 ovarian was 30.2 µM; in the test on SNB-19 CNS, greater than 56.2 µM; in the test with DU-145 prostate, 21.7 µM; with SF-295 CNS, 6.29 µM; in the test on HL-60(TB) leukemia, 5.31 µM; with NCI-H226 lung, 28 µM. Moreover, the TGI with HT29 colon was 11.7 µM; with SN12C renal, greater than 63.1 µM; with ACHN renal, greater than 56.2 µM; with MDA-MB-231 breast it was 42.6 µM; in the test on A498 renal it was greater than 69.5 µM; in the test on TK-10 renal, 47.1 µM. Also, the TGI in the test with SNB-75 CNS is 3.29 µM; with HCT-15 colon it was greater than 49.6 µM; with HOP-62 NSCLC, 20.7 µM; in the test with SF-539 CNS it was 1.49 µM.
With `CCOP(=O)(OCC)C(Nc1ccc(Br)cc1)c1cccc([N+](=O)[O-])c1` (configuration not stated), the TGI was greater than 100 µM in the test on OVCAR-4 ovarian; 47.6 µM in the test on SNB-19 CNS; greater than 100 µM in the test with DU-145 prostate; 28.3 µM with SF-295 CNS; 55.1 µM with HL-60(TB) leukemia; 38.3 µM in the test on NCI-H226 lung. The TGI in the test with HT29 colon was 34.3 µM; in the test on SN12C renal, 37.8 µM; in the test with ACHN renal, 47.1 µM; in the test on MDA-MB-231 breast, 43.2 µM; with A498 renal it was 31.1 µM; with TK-10 renal, 88.1 µM. Besides, the TGI in the test on SNB-75 CNS is greater than 100 µM; in the test with HCT-15 colon, 31.7 µM; in the test with HOP-62 NSCLC it was 39.8 µM; in the test with SF-539 CNS, 45.6 µM.
For `O=c1c2nc3ccccc3c(=O)n2ncn1-c1ccccc1Cl`, the TGI with OVCAR-4 ovarian, in the test with SNB-19 CNS, in the test on DU-145 prostate, in the test on SF-295 CNS, with HL-60(TB) leukemia and in the test on NCI-H226 lung was greater than 100 µM each time. Also, the TGI with HT29 colon, in the test with SN12C renal, with ACHN renal, in the test with MDA-MB-231 breast, in the test on A498 renal and in the test on TK-10 renal was greater than 100 µM each time. The TGI in the test on SNB-75 CNS, with HCT-15 colon, in the test on HOP-62 NSCLC and with SF-539 CNS was greater than 100 µM each time.
